In patent US20100087476A1, “PHARMACEUTICAL COMPOUNDS” (Biovail Laboratories International (Barbados) S.R.L., priority 2008, published 2010):

Legend:
Format in all cases: in vivo, BALB/c mice
[1] = tested on: OVA-sensitised mice; test: Lung histopathology scores (pulmonary inflammation), chicken ovalbumin parenteral sensitization model of asthma; conditions: 1 to 20 mg/kg twice daily oral gavage; probable dose-effect
Procedure: Groups of 8 BALB/c mice aged between 5 and 8 weeks of age were sensitised by i.p. (intraperitoneal) injection with ovalalbumin (OVA) in alum on days 0 and 14 (except Group A). All animals were challenged by aerosol exposure to 5% OVA for 20 minutes daily from days 18 to 23. Treatments were given by oral gavage twice daily from day 14 to day 24. At termination (day 24), all animals were subjected to unrestrained whole body plethysmography (whole-body plethysmograph Buxco Electronics, Troy, US) during exposure to increasing doses of methacholine leading to bronchoconstriction and hyper-responsiveness. These changes can be measured using the Buxco software to determine the PenH values for each animal. BAL fluids were collected and cytospins prepared and counted differentially for the presence of infiltrating cells. The supernatant from the BAL was retained and stored at ^−80° C. for possible cytokine analysis. Further, lungs were removed and placed in 10% buffered formalin for possible histopathology. […] The HE-stained sections were assessed for lung inflammation. Each lung was scored as described below. Samples were scored in blinded fashion, without knowledge of the experimental protocol or identity of groups. A semi-quantitative grading system was used to describe the degree of inflammatory change in the lungs. Descriptive comments (nature of cellular infiltration) were also recorded. […]

[2] = tested on: OVA-sensitised mice; test: Unrestrained whole body plethysmography (PenH) during methacholine exposure, chicken ovalbumin parenteral sensitization model of asthma
Description: (§1) An animal model of asthma was used in this study that included parenteral sensitisation of mice with chicken ovalbumin (OVA) together with a suitable adjuvant (Alum). Ovalbumin is widely used as an antigen as a result of its availability and ability to induce a good Th2-type immune response due to lack of any previous exposure to this antigen. Repeated aerosol exposure to ovalbumin post-sensitisation triggers airway changes leading to hyper-responsiveness, similar to that seen in asthma. These changes can be measured following challenge with a bronchoconstricting agent such as methacholine and analysed using whole body plethysmography. Pulmonary plethysmography is used to measure the functional residual capacity (FRC) of the lungs—the volume in the lungs when the muscles of respiration are relaxed—and total lung capacity. The degree of bronchochonstriction (BHR) can be expressed as enhanced pause (Pen H), a calculated value which correlates with measurement of airway resistance, impedance and intrapleural pressure in the same mouse.
Pen H is calculated from the relationship Pen H=(Te/Tr−1)×(Pef/Pif) where;
(§2) Groups of 8 BALB/c mice aged between 5 and 8 weeks of age were sensitised by i.p. (intraperitoneal) injection with ovalalbumin (OVA) in alum on days 0 and 14 (except Group A). All animals were challenged by aerosol exposure to 5% OVA for 20 minutes daily from days 18 to 23. Treatments were given by oral gavage twice daily from day 14 to day 24. At termination (day 24), all animals were subjected to unrestrained whole body plethysmography (whole-body plethysmograph Buxco Electronics, Troy, US) during exposure to increasing doses of methacholine leading to bronchoconstriction and hyper-responsiveness. These changes can be measured using the Buxco software to determine the PenH values for each animal. BAL fluids were collected and cytospins prepared and counted differentially for the presence of infiltrating cells. The supernatant from the BAL was retained and stored at ^−80° C. for possible cytokine analysis. […]

[3] = tested on: OVA-sensitised mice; test: Differential cell counts in bronchial lavage fluid (BAL), chicken ovalbumin parenteral sensitization model of asthma
Description: as §1
In addition, allergy can by analysed by examination of changes in the lung and lung fluid. This can be achieved by histopathological analysis of lung tissue and analysis of the cellular infiltrate in bronchial lavage fluid (BAL). Further, additional markers of allergy such as the presence of cytokines associated with allergy, IL-4 and IL-13 can be analysed in the BAL fluid.
as §2
Mice were terminated by i.p. injection of euthatal, the trachea exposed and cells obtained from the lungs by performing bronchoalveolar lavage, 3×0.4 ml with PBS. The lavage was pooled, cells counted using a nucleocounter, pelletted and resuspended at 5×10^5 cells per ml. […]
A minimum of 5 areas were counted on each slide. Each cell type was counted and percentage cell numbers determined From this the number of cells/BAL was determined.

[4] = across 1, 10 and 20 mg/kg twice daily oral gavage, day 14-24
[5] = highest dose, 20 mg/kg twice daily oral gavage (Group E)
[6] = two lower doses (1 and 10 mg/kg twice daily oral gavage, Groups C and D)

COc1cc2c(cc1OC)[C@H]1C[C@H](O)[C@@H](CC(C)C)CN1CC2 (single isomer, unassigned) [Isomer B]
lung pathology (mean group histopathological score) [1]: significant amelioration of pathology
PenH response to methacholine [2, 4]: dose dependent effect
airway hyper-responsiveness (PenH) [2, 5]: reduced airway hyper-responsiveness to levels just above those of the budesonide controls
PenH response to methacholine [2, 6]: no clear difference between treated and untreated animals
levels of eosinophil infiltration into the lung [3, 4]: dose dependent effect
effect on lung cell infiltration [3, 5]: small
eosinophil numbers in the BAL [3, 5]: associated reduction in eosinophil numbers in the BAL
levels of eosinophil infiltration into the lung [3, 6]: no clear difference between treated and untreated animals
